The target of data set [1] is T1, Caspase-1 (Homo sapiens, UniProt P29466).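 Note: Caspase-1 enzyme inhibition assay with a peptide substrate; in other assays of this panel Not Active means under 50% inhibition at 10 µM.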
T1 sequence (P29466 whole entry): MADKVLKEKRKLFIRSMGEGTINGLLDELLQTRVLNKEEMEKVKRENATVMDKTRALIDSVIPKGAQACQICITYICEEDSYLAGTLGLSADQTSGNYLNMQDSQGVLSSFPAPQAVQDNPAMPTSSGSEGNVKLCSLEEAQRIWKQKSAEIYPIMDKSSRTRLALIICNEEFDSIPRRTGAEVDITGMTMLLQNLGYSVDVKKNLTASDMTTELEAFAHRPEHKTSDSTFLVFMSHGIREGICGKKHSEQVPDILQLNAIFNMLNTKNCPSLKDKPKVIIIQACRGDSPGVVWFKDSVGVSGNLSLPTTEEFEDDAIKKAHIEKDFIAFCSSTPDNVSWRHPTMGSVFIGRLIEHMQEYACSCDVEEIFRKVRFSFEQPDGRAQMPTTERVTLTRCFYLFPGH
Further details: species or system Escherichia coli.

Data set [2] deals with T2, Cytochrome P450 2A6 (Homo sapiens, UniProt P11509).
T2 sequence (P11509 whole entry): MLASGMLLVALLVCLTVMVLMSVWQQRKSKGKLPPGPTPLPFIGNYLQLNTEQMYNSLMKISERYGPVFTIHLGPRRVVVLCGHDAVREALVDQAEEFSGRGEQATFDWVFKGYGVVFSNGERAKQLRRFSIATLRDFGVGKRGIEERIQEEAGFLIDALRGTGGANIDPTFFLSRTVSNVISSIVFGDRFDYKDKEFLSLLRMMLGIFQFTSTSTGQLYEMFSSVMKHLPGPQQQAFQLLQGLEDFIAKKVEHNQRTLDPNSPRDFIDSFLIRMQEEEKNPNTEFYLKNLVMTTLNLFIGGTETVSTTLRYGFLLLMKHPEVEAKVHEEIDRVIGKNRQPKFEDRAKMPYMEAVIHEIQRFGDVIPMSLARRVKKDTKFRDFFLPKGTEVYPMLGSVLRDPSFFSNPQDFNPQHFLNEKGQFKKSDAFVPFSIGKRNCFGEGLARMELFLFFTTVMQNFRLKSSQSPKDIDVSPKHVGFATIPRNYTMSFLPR
Conditions: bti-tn-5b1-4.

Data set [3] in a line: DRUGMATRIX: beta-Lactamase enzyme inhibition (substrate: Nitrocefin). Further details: species or system Bacillus cereus. Conditions: Not Active = under 50% inhibition at 10 µM.
Data set [4] deals with Matrix metalloproteinase-9 (Homo sapiens, UniProt P14780). The class given is cell-based.
Matrix metalloproteinase-9, sequence (P14780 whole entry): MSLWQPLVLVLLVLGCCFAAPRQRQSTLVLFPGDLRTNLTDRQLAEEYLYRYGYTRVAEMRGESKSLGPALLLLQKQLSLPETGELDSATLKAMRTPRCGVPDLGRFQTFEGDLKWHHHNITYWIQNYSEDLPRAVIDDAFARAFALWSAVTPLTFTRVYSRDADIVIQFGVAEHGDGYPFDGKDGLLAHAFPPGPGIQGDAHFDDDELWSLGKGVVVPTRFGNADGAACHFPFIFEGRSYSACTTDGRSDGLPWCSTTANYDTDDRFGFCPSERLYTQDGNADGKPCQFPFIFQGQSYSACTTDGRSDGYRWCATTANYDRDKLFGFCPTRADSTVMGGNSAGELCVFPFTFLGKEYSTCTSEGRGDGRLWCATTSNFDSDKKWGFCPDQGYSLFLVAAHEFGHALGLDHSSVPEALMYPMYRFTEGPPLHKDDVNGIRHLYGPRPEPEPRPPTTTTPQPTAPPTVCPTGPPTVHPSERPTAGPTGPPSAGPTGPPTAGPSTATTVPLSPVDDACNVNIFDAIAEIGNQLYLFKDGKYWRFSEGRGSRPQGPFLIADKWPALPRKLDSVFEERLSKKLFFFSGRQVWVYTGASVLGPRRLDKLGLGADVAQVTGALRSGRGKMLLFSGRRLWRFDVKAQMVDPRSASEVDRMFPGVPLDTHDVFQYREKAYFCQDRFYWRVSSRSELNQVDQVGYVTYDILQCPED
The target of data set [5] is T3, Alpha-2A adrenergic receptor (Homo sapiens, UniProt P08913). Note: in other assays of this panel Not Active means under 50% inhibition at 10 µM.
T3 sequence (P08913 whole entry): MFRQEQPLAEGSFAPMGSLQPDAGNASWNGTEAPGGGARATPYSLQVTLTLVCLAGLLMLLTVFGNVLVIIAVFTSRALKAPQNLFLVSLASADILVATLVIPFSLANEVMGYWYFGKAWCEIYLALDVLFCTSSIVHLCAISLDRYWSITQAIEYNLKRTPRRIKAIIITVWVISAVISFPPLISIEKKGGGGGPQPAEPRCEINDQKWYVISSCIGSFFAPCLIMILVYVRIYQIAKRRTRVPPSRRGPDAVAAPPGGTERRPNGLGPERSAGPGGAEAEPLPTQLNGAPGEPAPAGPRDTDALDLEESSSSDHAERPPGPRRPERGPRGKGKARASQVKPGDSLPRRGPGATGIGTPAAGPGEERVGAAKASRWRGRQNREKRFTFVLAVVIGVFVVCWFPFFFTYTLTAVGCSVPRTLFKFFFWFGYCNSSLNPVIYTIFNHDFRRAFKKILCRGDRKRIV
The format is cell membranes, Sf9, Membrane. The following applies: sf9.

A short description of data set [6]: DRUGMATRIX: Interleukin IL-1 radioligand binding (ligand: [125I] interleukin 1beta). The class given is cell membranes, Membrane. The following applies: nih3t3; Not Active = under 50% inhibition at 10 µM.
Data set [7] deals with Mitogen-activated protein kinase 1 (Homo sapiens, UniProt P28482). The data set can be described thus: DRUGMATRIX: Protein Serine/Threonine Kinase, ERK2 enzyme inhibition (substrate: Myelin Basic Protein). Conditions: Not Active = under 50% inhibition at 10 µM. Further details: species or system Escherichia coli.
Mitogen-activated protein kinase 1, sequence (P28482 whole entry): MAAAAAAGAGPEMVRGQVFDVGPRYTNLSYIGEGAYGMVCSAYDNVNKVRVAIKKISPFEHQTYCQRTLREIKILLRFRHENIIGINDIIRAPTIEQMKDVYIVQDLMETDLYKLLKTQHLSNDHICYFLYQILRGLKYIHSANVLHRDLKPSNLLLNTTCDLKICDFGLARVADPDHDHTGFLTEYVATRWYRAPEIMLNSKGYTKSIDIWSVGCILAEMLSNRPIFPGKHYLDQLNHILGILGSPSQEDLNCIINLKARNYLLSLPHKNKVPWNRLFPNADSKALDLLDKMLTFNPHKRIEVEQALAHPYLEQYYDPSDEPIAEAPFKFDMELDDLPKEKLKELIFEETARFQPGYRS
Data set [8] deals with C-C chemokine receptor type 5 (Homo sapiens, UniProt P51681). The format is cell membranes, HEK293, Membrane. Conditions: hek293.
C-C chemokine receptor type 5, sequence (P51681 whole entry): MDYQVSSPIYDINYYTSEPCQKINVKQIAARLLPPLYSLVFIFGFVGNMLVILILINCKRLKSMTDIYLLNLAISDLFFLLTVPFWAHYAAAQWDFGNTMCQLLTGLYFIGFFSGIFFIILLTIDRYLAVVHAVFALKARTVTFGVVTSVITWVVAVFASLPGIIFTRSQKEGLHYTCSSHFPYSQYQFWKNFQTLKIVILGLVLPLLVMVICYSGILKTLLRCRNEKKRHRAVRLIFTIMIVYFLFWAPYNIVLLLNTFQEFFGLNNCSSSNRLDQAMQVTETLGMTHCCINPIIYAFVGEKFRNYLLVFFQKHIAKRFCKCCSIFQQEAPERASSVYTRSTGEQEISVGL

Drawing on ChEMBL document CHEMBL1909046, “DrugMatrix in vitro pharmacology data”, this text covers IC50 and Ki for 14 compounds.

Broadly, the IC50 is the concentration that gives 50% inhibition. Consider `COc1cc(/C=C/C(=O)O)ccc1O` [FERULATE], for which the IC50 entry in data set [1], in data set [2], in data set [3], in data set [4], in data set [5] and in data set [6] was “Not Active” in each case. The IC50 entry in data set [7] and in data set [8] was “Not Active” throughout. Moreover, the Ki entry in data set [2], in data set [3] and in data set [6] was “Not Active” each time.
As for `CC(C)(C#N)c1cc(Cn2cncn2)cc(C(C)(C)C#N)c1` [ANASTROZOLE], the IC50 entry in data set [1], in data set [2], in data set [3], in data set [4], in data set [5] and in data set [6] was “Not Active” in each case. Besides, the IC50 result in data set [7] and in data set [8] was “Not Active” in each case. Besides, the Ki entry in data set [2], in data set [3] and in data set [6] was “Not Active” each time.
Regarding `COc1ccc(Cl)cc1C(=O)NCCc1ccc(S(=O)(=O)NC(=O)NC2CCCCC2)cc1` [GLYBURIDE], the IC50 result in data set [1], in data set [2], in data set [3], in data set [4], in data set [5] and in data set [6] was “Not Active” in each case. Also, the IC50 entry in data set [7] and in data set [8] was “Not Active” each time. Further, the Ki entry in data set [2], in data set [3] and in data set [6] was “Not Active” throughout.
Consider `CC(C)NCC(O)COc1ccc(CC(N)=O)cc1` (configuration not stated) [ATENOLOL], for which the IC50 result in data set [1], in data set [2], in data set [3], in data set [4], in data set [5] and in data set [6] was “Not Active” throughout. Also, the IC50 entry in data set [7] and in data set [8] was “Not Active” each time. Moreover, the Ki entry in data set [2], in data set [3] and in data set [6] was “Not Active” in each case.
As for `O=C(O)COC(=O)Cc1ccccc1Nc1c(Cl)cccc1Cl` [ACECLOFENAC], the IC50 result in data set [1], in data set [2], in data set [3], in data set [4], in data set [5] and in data set [6] was “Not Active” in each case. Moreover, the IC50 in data set [7] (read-out: IC50) was 5.93 µM; in data set [8] it was “Not Active”. Further, the Ki entry in data set [2], in data set [3] and in data set [6] was “Not Active” each time.
As for `Cl.NC[C@H]1CC[C@H](C(=O)Oc2ccc(CCC(=O)O)cc2)CC1` [CETRAXATE HYDROCHLORIDE], the 50% inhibitory concentration (IC50) result in data set [1], in data set [2], in data set [3], in data set [4], in data set [5] and in data set [6] was “Not Active” in each case. Besides, the IC50 result in data set [7] and in data set [8] was “Not Active” throughout. Besides, the Ki entry in data set [2], in data set [3] and in data set [6] was “Not Active” throughout.
Consider `CC(=O)[C@]1(O)Cc2c(O)c3c(c(O)c2[C@@H](O[C@H]2C[C@H](N)[C@H](O)[C@H](C)O2)C1)C(=O)c1ccccc1C3=O` [IDARUBICIN], for which the IC50 result in data set [1], in data set [2], in data set [3], in data set [4], in data set [5] and in data set [6] was “Not Active” each time. The IC50 result in data set [7] and in data set [8] was “Not Active” in each case. For the same compound, the Ki entry in data set [2], in data set [3] and in data set [6] was “Not Active” each time.
Take `C[C@@H]1[C@H](O)[C@@H](C)/C=C/C=C/C=C/C=C/C=C/C=C/C=C/[C@H](O[C@@H]2O[C@H](C)[C@@H](O)[C@H](N)[C@@H]2O)C[C@@H]2O[C@](O)(C[C@@H](O)C[C@@H](O)[C@H](O)CC[C@@H](O)C[C@@H](O)CC(=O)O[C@H]1C)C[C@H](O)[C@H]2C(=O)O` [AMPHOTERICIN B]: the half-inhibitory concentration (IC50) result in data set [1], in data set [2], in data set [3], in data set [4], in data set [5] and in data set [6] was “Not Active” in each case. In data set [8], the IC50 result is on record as “Not Active”. In addition, the Ki entry in data set [2], in data set [3] and in data set [6] was “Not Active” each time.
For the compound `O=C(O)c1ccccc1` [BENZOIC ACID], the IC50 result in data set [1], in data set [2], in data set [3], in data set [4], in data set [5] and in data set [6] was “Not Active” throughout. Further, the IC50 result in data set [7] and in data set [8] was “Not Active” each time. The Ki entry in data set [2], in data set [3] and in data set [6] was “Not Active” each time.
`O=C(O)CNCP(=O)(O)O` [GLYPHOSATE]: the half-inhibitory concentration (IC50) entry in data set [1], in data set [3], in data set [4], in data set [5], in data set [6] and in data set [7] was “Not Active” in each case. Moreover, in data set [8], the IC50 result was “Not Active”. For the same compound, the Ki result in data set [3] and in data set [6] was “Not Active” throughout.
On to `CNC[C@H](O)c1ccc(O)c(O)c1` [EPINEPHRINE], for which the IC50 entry in data set [1], in data set [2], in data set [3], in data set [4], in data set [6] and in data set [7] was “Not Active” each time. The IC50 entry in data set [8] is recorded as “Not Active”. Besides, the Ki entry in data set [2], in data set [3] and in data set [6] was “Not Active” each time.
As for `CN(Cc1cc(Br)cc(Br)c1N)C1CCCCC1` [BROMHEXINE], the IC50 entry in data set [1], in data set [2], in data set [3], in data set [4], in data set [5] and in data set [6] was “Not Active” throughout. For the same compound, the IC50 result in data set [8] is “Not Active”. Also, the Ki entry in data set [2], in data set [3] and in data set [6] was “Not Active” each time.
As to `CC(CN1c2ccccc2Sc2ccccc21)N(C)C` (configuration not stated) [PROMETHAZINE], the IC50 entry in data set [1], in data set [2], in data set [3], in data set [4], in data set [6] and in data set [7] was “Not Active” throughout. Besides, the IC50 entry in data set [8] is reported as “Not Active”. Besides, the Ki result in data set [2], in data set [3] and in data set [6] was “Not Active” throughout.
Consider `Cc1cc(C(C)(C)C)c(O)c(C)c1CC1=NCCN1` [OXYMETAZOLINE], for which the IC50 entry in data set [1], in data set [2], in data set [3], in data set [4], in data set [6] and in data set [7] was “Not Active” throughout. For the same compound, in data set [8], the IC50 result was “Not Active”. In addition, the Ki result in data set [2], in data set [3] and in data set [6] was “Not Active” in each case.
